ChEMBL document CHEMBL1201862, “PubChem BioAssay data set” (2004)
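Results reflect a 48-hour exposure of cells in 96-well plates to compound at five concentrations. GI50 marks 50% less growth.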 Calls of active or inactive are those of the source. Cut-off read from the data, not from the text of the source: active = GI50 up to about 1.1 µM and inactive = higher.

What was measured:
Assay in all cases: NCI tumour cell line growth inhibition, 48 h
SNB-75 = system: SNB-75
U-251 = system: U-251
SK-OV-3 = system: SK-OV-3
ACHN = system: ACHN
EKVX = system: EKVX
SK-MEL-2 = system: SK-MEL-2
SK-MEL-28 = system: SK-MEL-28
786-0 = system: 786-0
A549 = system: A549
T47D = system: T47D
K562 = system: K562
SK-MEL-5 = system: SK-MEL-5
RPMI-8226 = system: RPMI-8226
M14 = system: M14
NCI-H23 = system: NCI-H23
Malme-3M = system: Malme-3M
SNB-19 = system: SNB-19
HCC 2998 = system: HCC 2998
RXF 393 = system: RXF 393
SR = system: SR

SMILES	GI50 (SNB-75)	GI50 (U-251)	GI50 (SK-OV-3)	GI50 (ACHN)	GI50 (EKVX)	GI50 (SK-MEL-2)	GI50 (SK-MEL-28)	GI50 (786-0)	GI50 (A549)	GI50 (T47D)	GI50 (K562)	GI50 (SK-MEL-5)	GI50 (RPMI-8226)	GI50 (M14)	GI50 (NCI-H23)	GI50 (Malme-3M)	GI50 (SNB-19)	GI50 (HCC 2998)	GI50 (RXF 393)	GI50 (SR)
CCOC(=O)N1CCC2(CC1)C[C@@](C(C)=O)(c1ccccc1)C(C)O2 (stereo not given in full)	80.7 µM (inactive)	> 100 µM (inactive)	57.4 µM (inactive)	> 100 µM (inactive)	> 100 µM (inactive)	> 100 µM (inactive)	> 100 µM (inactive)	> 100 µM (inactive)	51.3 µM (inactive)	17 µM (inactive)	> 100 µM (inactive)	> 100 µM (inactive)	> 100 µM (inactive)	> 100 µM (inactive)	> 100 µM (inactive)	> 100 µM (inactive)	> 100 µM (inactive)	> 100 µM (inactive)		
CC1(C)N[PH]2(Nc3ccccc3O2)OC1=O	> 100 µM (inactive)	70.1 µM (inactive)	> 100 µM (inactive)	42.3 µM (inactive)	84.3 µM (inactive)		86.9 µM (inactive)	> 100 µM (inactive)	32.7 µM (inactive)	> 100 µM (inactive)	37.9 µM (inactive)	24.3 µM (inactive)	5.32 µM (inactive)	38.5 µM (inactive)	67.9 µM (inactive)	38.4 µM (inactive)	> 100 µM (inactive)	> 100 µM (inactive)	> 100 µM (inactive)	
CCCCCC(=O)OC[n+]1ccc2c(C)c3[nH]c4ccccc4c3c(C)c2c1	1.49 µM (inactive)	0.656 µM (active)	1.92 µM (inactive)	0.738 µM (active)	0.628 µM (active)	3.61 µM (inactive)	1.43 µM (inactive)	0.405 µM (active)	0.586 µM (active)			1.51 µM (inactive)	0.288 µM (active)	1.42 µM (inactive)	0.857 µM (active)	1.54 µM (inactive)		0.787 µM (active)	1.23 µM (inactive)	0.281 µM (active)
O=C1C=C(c2ccccc2)OC1C1Sc2ccccc2NC1=O (stereo not given)	5.11 µM (inactive)	4.01 µM (inactive)	8.09 µM (inactive)	4.9 µM (inactive)	14 µM (inactive)	8.51 µM (inactive)	9.73 µM (inactive)	5.83 µM (inactive)	3.06 µM (inactive)	10.4 µM (inactive)	3.3 µM (inactive)	9.51 µM (inactive)	3.66 µM (inactive)	8.67 µM (inactive)	3.77 µM (inactive)	24.3 µM (inactive)	4.08 µM (inactive)	5.69 µM (inactive)	14 µM (inactive)	
CN(C)C(=O)Oc1c(-c2ccccc2)c(=O)n2c3ccccc3n3c(=O)n(C)c(=O)c1c23	72.3 µM (inactive)	> 100 µM (inactive)	> 100 µM (inactive)	> 100 µM (inactive)	> 100 µM (inactive)	> 100 µM (inactive)	> 100 µM (inactive)	> 100 µM (inactive)	> 100 µM (inactive)			> 100 µM (inactive)	> 100 µM (inactive)	> 100 µM (inactive)	> 100 µM (inactive)	> 100 µM (inactive)	> 100 µM (inactive)	> 100 µM (inactive)	> 100 µM (inactive)	> 100 µM (inactive)
CN(CCS(=O)(=O)N1C(=O)C2CCCN2C(=O)[C@@H]1Cc1ccccc1)C(=O)OCc1ccccc1 (stereo not given in full)	33.4 µM (inactive)	56.2 µM (inactive)	> 100 µM (inactive)	28.3 µM (inactive)	30.9 µM (inactive)		93.5 µM (inactive)	> 100 µM (inactive)	48 µM (inactive)		33.4 µM (inactive)	25.8 µM (inactive)	15.1 µM (inactive)	45.6 µM (inactive)	53.2 µM (inactive)	65 µM (inactive)	41.6 µM (inactive)	40.2 µM (inactive)	28.6 µM (inactive)	40 µM (inactive)
N#CCCN(C1=NN(C(=O)CC(=O)Nc2ccc(Cl)cc2)C(c2ccccc2)C1)c1ccc(Cl)cc1 (stereo not given)	> 100 µM (inactive)	> 100 µM (inactive)		> 100 µM (inactive)	> 100 µM (inactive)	> 100 µM (inactive)	> 100 µM (inactive)	> 100 µM (inactive)	> 100 µM (inactive)		> 100 µM (inactive)	> 100 µM (inactive)	> 100 µM (inactive)	> 100 µM (inactive)	> 100 µM (inactive)	> 100 µM (inactive)	> 100 µM (inactive)	> 100 µM (inactive)	> 100 µM (inactive)	> 100 µM (inactive)
C=CCC(N(C)C(=O)[C@H](Cc1ccccc1)NC(=O)OCc1ccccc1)P(=O)(Oc1ccccc1)Oc1ccccc1 (stereo not given in full)	80.5 µM (inactive)	> 100 µM (inactive)	> 100 µM (inactive)	6.5 µM (inactive)	> 100 µM (inactive)	> 100 µM (inactive)	> 100 µM (inactive)	> 100 µM (inactive)	5.81 µM (inactive)		9.2 µM (inactive)		6.81 µM (inactive)	> 100 µM (inactive)	> 100 µM (inactive)	> 100 µM (inactive)	> 100 µM (inactive)	> 100 µM (inactive)	> 100 µM (inactive)	6.37 µM (inactive)
CCCC(=O)OCC1OC(n2cc(F)c(=O)[nH]c2=O)C(F)C1O (stereo not given)	> 55 µM (inactive)	10.8 µM (inactive)	> 74 µM (inactive)	10.9 µM (inactive)	> 71.4 µM (inactive)	> 100 µM (inactive)	> 100 µM (inactive)	30.6 µM (inactive)	5.85 µM (inactive)	> 100 µM (inactive)	6.35 µM (inactive)	> 40.4 µM (inactive)	6.3 µM (inactive)	18.8 µM (inactive)	> 88.7 µM (inactive)	> 80 µM (inactive)	78.5 µM (inactive)	> 100 µM (inactive)	> 100 µM (inactive)	
O=C(COc1ccc(Br)cc1Br)N1N=C(c2ccc([N+](=O)[O-])o2)CC1(O)c1ccccc1 (stereo not given)	14.1 µM (inactive)	8.73 µM (inactive)	24.1 µM (inactive)	15.3 µM (inactive)	2.79 µM (inactive)	12.5 µM (inactive)	12.6 µM (inactive)	15.6 µM (inactive)	8.65 µM (inactive)		4.7 µM (inactive)	5.45 µM (inactive)	2.11 µM (inactive)	10.1 µM (inactive)	12.4 µM (inactive)	10.7 µM (inactive)	19.3 µM (inactive)	10.6 µM (inactive)	2.53 µM (inactive)	2.12 µM (inactive)
OC1(C(F)(F)F)OCCN=C1C(F)(F)F (stereo not given)	> 100 µM (inactive)	> 100 µM (inactive)	> 100 µM (inactive)	> 100 µM (inactive)	> 100 µM (inactive)	31.5 µM (inactive)	> 100 µM (inactive)	> 100 µM (inactive)	> 100 µM (inactive)	> 100 µM (inactive)	> 100 µM (inactive)	56.2 µM (inactive)	> 100 µM (inactive)	> 100 µM (inactive)	> 100 µM (inactive)	24.8 µM (inactive)	> 100 µM (inactive)	> 100 µM (inactive)	> 100 µM (inactive)	
Oc1cccc(-c2cc(=S)ss2)c1		14.8 µM (inactive)	20 µM (inactive)	15.7 µM (inactive)	16.1 µM (inactive)	15.6 µM (inactive)	19.7 µM (inactive)	19.7 µM (inactive)	18.5 µM (inactive)		8.57 µM (inactive)	5.97 µM (inactive)	2.24 µM (inactive)	20.6 µM (inactive)	8.79 µM (inactive)	17.6 µM (inactive)	19.7 µM (inactive)	17.7 µM (inactive)	18 µM (inactive)	2.76 µM (inactive)
Cn1c2c(c3ccccc31)C1CCCCCCC1C1C(=O)OC(=O)C21 (stereo not given)	30.3 µM (inactive)	37.9 µM (inactive)	32.7 µM (inactive)	56 µM (inactive)	45.5 µM (inactive)		54.1 µM (inactive)	> 100 µM (inactive)	36.9 µM (inactive)		31.3 µM (inactive)	35.2 µM (inactive)	23.1 µM (inactive)	88.1 µM (inactive)	69.7 µM (inactive)	11.9 µM (inactive)	44.8 µM (inactive)	22.4 µM (inactive)	21.2 µM (inactive)	29 µM (inactive)
CC(=O)OC(C)(C)[C@@H]1CC[C@]2(C)/C=C/[C@H](C)C[C@@H](O)C3=C(C)C[C@@H](O3)C12 (stereo not given in full)	> 100 µM (inactive)	> 100 µM (inactive)	> 100 µM (inactive)	> 100 µM (inactive)	> 100 µM (inactive)	> 100 µM (inactive)	> 100 µM (inactive)	> 100 µM (inactive)	> 100 µM (inactive)		> 100 µM (inactive)	> 100 µM (inactive)	> 100 µM (inactive)	> 100 µM (inactive)	> 100 µM (inactive)	> 100 µM (inactive)	> 100 µM (inactive)	> 100 µM (inactive)	94.6 µM (inactive)	> 100 µM (inactive)
O=C(O)/C=C(/CC(=O)O)C(=O)O	14.1 µM (inactive)	19.4 µM (inactive)	21.5 µM (inactive)	18.1 µM (inactive)	19.3 µM (inactive)	19.5 µM (inactive)	21.2 µM (inactive)	17.5 µM (inactive)	18.6 µM (inactive)	20.2 µM (inactive)	19.2 µM (inactive)	21 µM (inactive)	14.9 µM (inactive)	18.7 µM (inactive)	23.2 µM (inactive)	18.7 µM (inactive)	22.2 µM (inactive)	30.8 µM (inactive)	16 µM (inactive)	
